PubChem BioAssay AID2060499 (Molecular Pharmacology Branch, DTP, NCI, 2025)

Test system: 777334-354-R2-J4-PDC tumor spheroids with HUVEC/MSC, viability
Assay: Anticancer human tumor 777334-354-R2-J4-PDC patient-derived pancreatic adenocarcinoma cell line growth inhibition [GQUAD]
Settings: for IC50: curve of first compound; for viability, T/C: stronger effect = lower value
Procedure, shortened: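 Multi-cell-type spheroids of tumor cells with HUVEC and mesenchymal stem cells, treated with drug combinations. Concentrations descend in half-log steps from near clinical Cmax, or from 10 microM where Cmax is unknown; viability read-out.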

[1] = second compound 0.0316 µM, first compound 0.0316 µM
[2] = second compound 0.0316 µM, first compound 0.1 µM
[3] = second compound 0.0316 µM, first compound 0.316 µM
[4] = second compound 0.0316 µM, first compound 1 µM
[5] = second compound 0.0316 µM, first compound 3.16 µM
[6] = second compound 0.0316 µM, first compound 10 µM
[7] = second compound 0.1 µM, first compound 0.0316 µM
[8] = second compound 0.1 µM, first compound 0.1 µM
[9] = second compound 0.1 µM, first compound 0.316 µM
[10] = second compound 0.1 µM, first compound 1 µM
[11] = second compound 0.1 µM, first compound 3.16 µM
[12] = second compound 0.1 µM, first compound 10 µM
[13] = second compound 0.316 µM, first compound 0.0316 µM
[14] = second compound 0.316 µM, first compound 0.1 µM
[15] = second compound 0.316 µM, first compound 0.316 µM
[16] = second compound 0.316 µM, first compound 1 µM
[17] = second compound 0.316 µM, first compound 3.16 µM
[18] = second compound 0.316 µM, first compound 10 µM
[19] = second compound 1 µM, first compound 0.0316 µM
[20] = second compound 1 µM, first compound 0.1 µM
[21] = second compound 1 µM, first compound 0.316 µM
[22] = second compound 1 µM, first compound 1 µM
[23] = second compound 1 µM, first compound 3.16 µM
[24] = second compound 1 µM, first compound 10 µM
[25] = second compound 3.16 µM, first compound 0.0316 µM
[26] = second compound 3.16 µM, first compound 0.1 µM
[27] = second compound 3.16 µM, first compound 0.316 µM
[28] = second compound 3.16 µM, first compound 1 µM
[29] = second compound 3.16 µM, first compound 3.16 µM
[30] = second compound 3.16 µM, first compound 10 µM
[31] = second compound 10 µM, first compound 0.0316 µM
[32] = second compound 10 µM, first compound 0.1 µM
[33] = second compound 10 µM, first compound 0.316 µM
[34] = second compound 10 µM, first compound 1 µM
[35] = second compound 10 µM, first compound 3.16 µM
[36] = second compound 10 µM, first compound 10 µM
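Also: spheroids exposed to compounds for 7 days before readout.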

## C#Cc1c(F)ccc2cc(O)cc(-c3ncc4c(N5CC6CCC(C5)N6)nc(OCC56CCCN5CC(F)C6)nc4c3F)c12 (stereo unspecified) + Cc1cnc(CNC(=O)c2c(=O)c3ccc(N4CCCN(C)CC4)nc3n3c2sc2ccccc23)cn1
Second compound 0.0316 µM
  IC50: < 0.0316 µM
Second compound 0.1 µM
  IC50: < 0.0316 µM
Second compound 0.316 µM
  IC50: < 0.0316 µM
Second compound 1 µM
  IC50: < 0.0316 µM
Second compound 3.16 µM
  IC50: < 0.0316 µM
Second compound 10 µM
  IC50: < 0.0316 µM
[1]
  viability, T/C: 49.7%
[2]
  viability, T/C: 38.7%
[3]
  viability, T/C: 31.4%
[4]
  viability, T/C: 31.6%
[5]
  viability, T/C: 27.1%
[6]
  viability, T/C: 24.2%
[7]
  viability, T/C: 45.1%
[8]
  viability, T/C: 34.4%
[9]
  viability, T/C: 30.9%
[10]
  viability, T/C: 26.4%
[11]
  viability, T/C: 23.5%
[12]
  viability, T/C: 21.3%
[13]
  viability, T/C: 39.6%
[14]
  viability, T/C: 33.8%
[15]
  viability, T/C: 28.8%
[16]
  viability, T/C: 25.6%
[17]
  viability, T/C: 22.6%
[18]
  viability, T/C: 19.9%
[19]
  viability, T/C: 36.2%
[20]
  viability, T/C: 29.4%
[21]
  viability, T/C: 31.1%
[22]
  viability, T/C: 23.6%
[23]
  viability, T/C: 21.9%
[24]
  viability, T/C: 19.4%
[25]
  viability, T/C: 28%
[26]
  viability, T/C: 25.5%
[27]
  viability, T/C: 22.8%
[28]
  viability, T/C: 19.2%
[29]
  viability, T/C: 17.5%
[30]
  viability, T/C: 14.4%
[31]
  viability, T/C: 22%
[32]
  viability, T/C: 16.7%
[33]
  viability, T/C: 15%
[34]
  viability, T/C: 8.71%
[35]
  viability, T/C: 8.87%
[36]
  viability, T/C: 3.17%

## O=c1[nH]cc(F)c(=O)[nH]1 + Cc1[nH]c2ccc(F)cc2c1-c1nc2c3cccnc3c3ncccc3c2[nH]1
Second compound 0.0316 µM
  IC50: > 10 µM
Second compound 0.1 µM
  IC50: > 10 µM
Second compound 0.316 µM
  IC50: > 10 µM
Second compound 1 µM
  IC50: > 10 µM
Second compound 3.16 µM
  IC50: < 0.0316 µM
Second compound 10 µM
  IC50: < 0.0316 µM
[1]
  viability, T/C: 95.5%
[2]
  viability, T/C: 93.3%
[3]
  viability, T/C: 105%
[4]
  viability, T/C: 82.5%
[5]
  viability, T/C: 71.3%
[6]
  viability, T/C: 61.5%
[7]
  viability, T/C: 113%
[8]
  viability, T/C: 100%
[9]
  viability, T/C: 103%
[10]
  viability, T/C: 72%
[11]
  viability, T/C: 80.8%
[12]
  viability, T/C: 61.7%
[13]
  viability, T/C: 89.1%
[14]
  viability, T/C: 103%
[15]
  viability, T/C: 86.1%
[16]
  viability, T/C: 76.8%
[17]
  viability, T/C: 79.4%
[18]
  viability, T/C: 67.5%
[19]
  viability, T/C: 74.7%
[20]
  viability, T/C: 89.5%
[21]
  viability, T/C: 72.9%
[22]
  viability, T/C: 61.1%
[23]
  viability, T/C: 68.7%
[24]
  viability, T/C: 53.3%
[25]
  viability, T/C: 44.6%
[26]
  viability, T/C: 38.4%
[27]
  viability, T/C: 31.2%
[28]
  viability, T/C: 28.8%
[29]
  viability, T/C: 27.7%
[30]
  viability, T/C: 25%
[31]
  viability, T/C: 29.6%
[32]
  viability, T/C: 29.1%
[33]
  viability, T/C: 24.5%
[34]
  viability, T/C: 17.4%
[35]
  viability, T/C: 16.4%
[36]
  viability, T/C: 18.5%

## CC1COCCN1c1cc(C2(S(C)(=N)=O)CC2)nc(-c2ccnc3[nH]ccc23)n1 (stereo unspecified) + Cc1cnc(CNC(=O)c2c(=O)c3ccc(N4CCCN(C)CC4)nc3n3c2sc2ccccc23)cn1
Second compound 0.0316 µM
  IC50: > 10 µM
Second compound 0.1 µM
  IC50: > 10 µM
Second compound 0.316 µM
  IC50: > 10 µM
Second compound 1 µM
  IC50: > 10 µM
Second compound 3.16 µM
  IC50: > 10 µM
Second compound 10 µM
  IC50: > 10 µM
[1]
  viability, T/C: 103%
[2]
  viability, T/C: 85.7%
[3]
  viability, T/C: 113%
[4]
  viability, T/C: 93.9%
[5]
  viability, T/C: 99%
[6]
  viability, T/C: 53.8%
[7]
  viability, T/C: 112%
[8]
  viability, T/C: 84.4%
[9]
  viability, T/C: 94.8%
[10]
  viability, T/C: 80.5%
[11]
  viability, T/C: 88.9%
[12]
  viability, T/C: 53%
[13]
  viability, T/C: 84.1%
[14]
  viability, T/C: 87.4%
[15]
  viability, T/C: 81.2%
[16]
  viability, T/C: 82%
[17]
  viability, T/C: 86.9%
[18]
  viability, T/C: 52.3%
[19]
  viability, T/C: 76.2%
[20]
  viability, T/C: 93.4%
[21]
  viability, T/C: 78.5%
[22]
  viability, T/C: 81.5%
[23]
  viability, T/C: 68.6%
[24]
  viability, T/C: 50.7%
[25]
  viability, T/C: 64.5%
[26]
  viability, T/C: 57.1%
[27]
  viability, T/C: 65%
[28]
  viability, T/C: 58.7%
[29]
  viability, T/C: 69.2%
[30]
  viability, T/C: 54.7%
[31]
  viability, T/C: 56.5%
[32]
  viability, T/C: 59.5%
[33]
  viability, T/C: 53.5%
[34]
  viability, T/C: 55.9%
[35]
  viability, T/C: 57.5%
[36]
  viability, T/C: 44.7%
